Assay results from paper PMC9127750, “Structure-based design of CDC42 effector interaction inhibitors for the treatment of cancer” (Cell reports, 2022).
Values joined by “and” are separate entries in the source; they are usually repeats but may differ in a detail not shown here. Equal entries are not always repeated.

Tested on: WM3248 melanoma cells, 486 antibodies
Test: Reverse phase protein arrays (RPPA)
Assay type: cell-based, Human
Text: Pellets were snap frozen in liquid nitrogen and shipped to MD Anderson Cancer Center core RPPA facility for RPPA analysis (Table S5). Three biological replicates for each sample were generated.
Nomenclatures on the RPPA heatmaps: name_of_antibody.species_of_antibody.status_of_antibody. V - antibody validated; C - validation of antibody in progress; Q - antibody nonspecific; E – under evaluation; antibodies raised in M - mouse, G - goat, R - rabbit, or T - rat.

[1] = Norm_5: replicates 1-3 and Average, relative to 0
[2] = Norm_5, replicates 1-3 and Average, relative to Norm_0

In the case of `CN(C)c1cccc(Nc2cc(-c3ccccc3)nc(C3CCNCC3)n2)c1` [ARN22089, N1,N1-dimethyl-N3-(6-phenyl-2-(piperidin-4-yl)pyrimidin-4-yl)benzene-1,3-diamine], the “RSK1.R.V normalized RPPA signal” value [1] is reported as 1.085 and 0.967 and 1.032, the “RSK.R.C normalized RPPA signal” value [1] is reported as 1.076 and 1.100 and the “Rab11.R.C normalized RPPA signal” value [1] is reported as 1.016 and 1.047 and 1.025 and 1.029. For the same compound, the “Rab25.R.V normalized RPPA signal” value [1] was 0.979 and 1.011 and 0.966 and 0.985, the “Rad17_pS645.R.V normalized RPPA signal” value [1] was 0.979 and 0.856 and 0.975 and the “Rad23A.R.C normalized RPPA signal” value [1] was 0.977 and 1.149 and 0.762 and 0.963. For the same compound, the “Rad50.R.V normalized RPPA signal” value [1] was 1.246 and 0.924 and 1.080, the “Rad51.R.C normalized RPPA signal” value [1] was 0.775 and 0.822 and 0.890 and 0.829 and the “Raptor.R.V normalized RPPA signal” value [1] was 0.903 and 1.058 and 0.970. For the same compound, the “Rb.M.Q normalized RPPA signal” value [1] was 0.962 and 0.918 and 0.956 and 0.945, the “Rb_pS807_S811.R.V normalized RPPA signal” value [1] was 0.882 and 1.011 and 0.977 and the “Rheb.M.C normalized RPPA signal” value [1] was 1.004 and 1.059 and 1.001 and 1.021. For the same compound, the “Rictor.R.C normalized RPPA signal” value [1] was 1.004 and 0.961 and 1.013, the “Rictor_pT1135.R.V normalized RPPA signal” value [1] was 1.047 and 0.998 and 1.024 and 1.023 and the “S6.M.V normalized RPPA signal” value [1] was 1.120 and 0.958 and 1.452. For the same compound, the “S6_pS235_S236.R.V normalized RPPA signal” value [1] was 1.127 and 0.835 and 1.012 and 0.991, the “S6_pS240_S244.R.V normalized RPPA signal” value [1] was 0.956 and 0.805 and 0.753 and 0.838 and the “SCD.M.V normalized RPPA signal” value [1] was 0.971 and 0.991 and 1.085 and 1.016. The “SDHA.R.V normalized RPPA signal” value [1] was 1.033 and 1.016 and 1.031, the “SF2.R.V normalized RPPA signal” value [1] was 0.946 and 0.943 and 1.034 and 0.974 and the “SFRP1.R.V normalized RPPA signal” value [1] was 0.931 and 0.917 and 0.927 and 0.925. For the same compound, the “SGK1.R.V normalized RPPA signal” value [1] was 1.122 and 0.983 and 1.065, the “SGK3.R.V normalized RPPA signal” value [1] was 0.809 and 0.879 and 0.966 and 0.885 and the “SHP2.R.V normalized RPPA signal” value [1] was 0.965 and 0.955 and 0.959 and 0.960. For the same compound, the “SHP.2_pY542.R.C normalized RPPA signal” value [1] was 1.007 and 1.103 and 0.995 and 1.035, the “SIRPαR.V normalized RPPA signal” value [1] was 0.995 and 0.945 and 0.836 and 0.925 and the “SLC1A5.R.C normalized RPPA signal” value [1] was 1.053 and 0.972. For the same compound, the “SOD1.M.V normalized RPPA signal” value [1] was 0.959 and 1.035 and 0.980, the “SOD2.R.V normalized RPPA signal” value [1] was 1.012 and 1.026 and 0.995 and the “SOX7.R.V normalized RPPA signal” value [1] was 0.939 and 1.028 and 0.910 and 0.959. The “STING.R.V normalized RPPA signal” value [1] was 0.946 and 1.077 and 1.149 and 1.057, the “Shc_pY317.R.C normalized RPPA signal” value [1] was 0.575 and 1.701 and 1.009 and the “Slfn11.G.C normalized RPPA signal” value [1] was 0.898 and 1.001 and 0.887 and 0.929. For the same compound, the “Smac.M.Q normalized RPPA signal” value [1] was 0.860 and 1.033 and 0.824 and 0.905, the “Smad1.R.V normalized RPPA signal” value [1] was 1.028 and 1.016 and 1.057 and 1.034 and the “Smad3.R.V normalized RPPA signal” value [1] was 1.027 and 1.110 and 0.885 and 1.007. For the same compound, the “Smad4.R.V normalized RPPA signal” value [1] was 0.953 and 0.919 and 1.129 and 1.000, the “Snail.M.Q normalized RPPA signal” value [1] was 0.807 and 0.836 and 0.899 and 0.847 and the “Sox2.R.V normalized RPPA signal” value [1] was 1.113 and 0.987 and 0.935 and 1.012. The “Sox17.R.V normalized RPPA signal” value [1] was 0.914 and 0.904 and 1.000 and 0.939, the “Src.M.V normalized RPPA signal” value [1] was 0.923 and 1.011 and 1.048 and 0.994 and the “Src_pY416.R.V normalized RPPA signal” value [1] was 0.930 and 0.928 and 0.956. The “Src_pY527.R.V normalized RPPA signal” value [1] was 1.055 and 1.158 and 1.605 and 1.273, the “Stat1_pY701.R.V normalized RPPA signal” value [1] was 0.914 and 0.929 and 0.961 and 0.935 and the “Stat3.R.C normalized RPPA signal” value [1] was 0.970 and 0.910 and 0.975. The “Stat3_pY705.R.C normalized RPPA signal” value [1] was 1.031 and 0.914 and 0.997 and 0.980, the “Stat5a.R.V normalized RPPA signal” value [1] was 0.989 and 1.022 and 1.028 and 1.013 and the “Stathmin.1.R.V normalized RPPA signal” value [1] was 1.025 and 1.018 and 0.975 and 1.006. The “Syk.M.V normalized RPPA signal” value [1] was 0.694 and 0.899 and 1.030 and 0.874, the “Synaptophysin.R.C normalized RPPA signal” value [1] was 0.918 and 0.774 and 1.022 and 0.904 and the “TAZ.R.V normalized RPPA signal” value [1] was 0.970 and 1.124 and 0.886 and 0.994. For the same compound, the “TEAD.R.C normalized RPPA signal” value [1] was 0.913 and 0.942 and 0.954 and 0.936, the “TFAM.R.V normalized RPPA signal” value [1] was 0.945 and 1.024 and 1.101 and 1.023 and the “TFRC.R.V normalized RPPA signal” value [1] was 0.905 and 0.974 and 0.942 and 0.940. For the same compound, the “TIGAR.R.V normalized RPPA signal” value [1] was 1.046 and 0.999 and 1.028, the “TRAP1.M.V normalized RPPA signal” value [1] was 0.917 and 0.980 and 0.909 and 0.935 and the “TRIM24.R.C normalized RPPA signal” value [1] was 0.917 and 0.931 and 1.013 and 0.954. The “TRIM25.R.C normalized RPPA signal” value [1] was 0.925 and 1.108 and 1.361 and 1.131, the “TRIP13.R.V normalized RPPA signal” value [1] was 0.993 and 0.918 and 0.936 and the “Tau.M.C normalized RPPA signal” value [1] was 1.003 and 0.977 and 1.007. For the same compound, the “Transglutaminase.M.V normalized RPPA signal” value [1] was 1.143 and 1.434 and 0.745 and 1.107, the “A.Raf.R.V RPPA signal, normalized” value [2] was 1.063 and 0.973 and 1.128 and 1.055 and the “A.Raf_pS299.R.C RPPA signal, normalized” value [2] was 0.910 and 0.929 and 0.996 and 0.945. For the same compound, the “ACC1.R.C RPPA signal, normalized” value [2] was 1.079 and 1.112, the “ACC_pS79.R.V RPPA signal, normalized” value [2] was 0.996 and 1.006 and 1.005 and 1.002 and the “ACLY_pS455.R.V RPPA signal, normalized” value [2] was 0.993 and 1.161 and 0.844 and 0.999. For the same compound, the “ACSL1.R.V RPPA signal, normalized” value [2] was 0.995 and 0.806 and 0.904, the “ACVRL1.R.C RPPA signal, normalized” value [2] was 0.940 and 0.993 and 0.936 and 0.956 and the “ADAR1.M.V RPPA signal, normalized” value [2] was 0.990 and 0.970 and 1.080 and 1.013. The “ALKBH5.R.V RPPA signal, normalized” value [2] was 1.026 and 1.137 and 0.879 and 1.014, the “AMPK.a2_pS345.R.V RPPA signal, normalized” value [2] was 0.974 and 1.081 and 1.055 and the “AMPKa.R.C RPPA signal, normalized” value [2] was 1.048. For the same compound, the “AMPKa_pT172.R.C RPPA signal, normalized” value [2] was 1.029 and 0.832 and 0.850 and 0.903, the “AR.R.V RPPA signal, normalized” value [2] was 1.053 and 0.956 and 1.050 and 1.020 and the “ARID1A.R.C RPPA signal, normalized” value [2] was 1.008 and 1.012 and 1.065. The “ASNS.R.V RPPA signal, normalized” value [2] was 1.454 and 1.206, the “ATM.R.V RPPA signal, normalized” value [2] was 0.983 and 1.033 and 1.311 and 1.109 and the “ATM_pS1981.R.V RPPA signal, normalized” value [2] was 0.928 and 0.941 and 0.961 and 0.943. The “ATP5A.M.C RPPA signal, normalized” value [2] was 1.127 and 1.377 and 0.535 and 1.013, the “ATP5H.R.V RPPA signal, normalized” value [2] was 1.032 and 1.077 and 0.898 and 1.003 and the “ATR.R.V RPPA signal, normalized” value [2] was 0.945 and 0.970 and 0.954.
